Source: ChEMBL document CHEMBL1151296, “Ipomopsin, a New Biscoumarin from Ipomopsis aggregata” (J Nat Prod, 1984)
Calls of active or inactive are those of the source. The calls are words filed in the database; no cut-off is given here.

Key:
KB = experiment: Cytotoxicity against human KB cells; format: functional, cell-based
P388 = experiment: Cytotoxicity against mouse P388 cells; format: functional, cell-based

Question: Which results are given for `COc1cc2cc(-c3c(O)c(OC)cc4ccc(=O)oc34)c(=O)oc2cc1O`?
Answer: Activity (KB): inactive; Activity (P388): inactive
